Source: patent publication US12060588B2, “Methods of editing DNA methylation” (Whitehead Institute for Biomedical Research, priority 2016, dated 2024)

Test system: BDNF promoter IV / BDNF expression
Assay: BDNF expression in mouse cortical neurons (RT-qPCR)
Format: cell-based
Experimental: FIGS. 3A-3E depict targeted demethylation of BDNF promoter IV by dCas9-Tet1 to activate BDNF in neurons. FIG. 3A provides a schematic representation of targeting BDNF promoter IV by dCas9-Tet1 (dC-T) with specific gRNAs to erase methylation and activate BDNF expression. […] Bars are mean t SD of three biological replicates. FIG. 3C provides representative confocal images for BDNF induction in FIG. 3B. Top panel: BDNF expression was induced by 50 mM KCl treatment for 6 hrs. […] Stained in red for MAP2 (top two panels) or Cherry (bottom two panels), green for BDNF, blue for DAPI and grey for dCas9. Scale bar: 50 um. FIG. 3D depicts bisulfite sequencing of neurons in FIG. 3C. […] Shown is the mean percentage±SD of two biological replicates.
FIGS. 11A-11L depict targeted demethylation of BDNF promoter IV by dCas9-Tet1 in neurons. […] PAM for each gRNA is highlighted by a red box. […] Note that cultured neurons were treated with AraC on DIV2 to halt cell division in glial cells and neural progenitors. […] FIG. 11C provides EDU labeling analysis for the mouse primary neurons over the course of KCl treatment for 24 hrs. Note that extremely few EDU positive cells were observed. Stained in red for EDU, green for MAP2 and DAPI for nuclei. Scale bar: 500 um. FIG. 11D Upper panel: provides quantification of neuronal density over the course of KCl treatment. The post-mitotic neuron density remains steadily around 4.5×10^4/cm2 over time. Bars represent mean±SD of three experimental replicates. Lower panel: provides quantification of the EDU positive cells over the course of KCl treatment. Less than 2% of the cells are EDU-positive over 24 hrs. Bars represent mean±SD of three experimental replicates. FIG. 11E provides confocal micrographs of BDNF induction by ectopic expression of dCas9-Tet1 and a set of 4 gRNAs targeting BDNF promoter IV. Stained in green for BDNF, magenta for MAP2, red for Cherry and blue for DAPI. Note that the lentiviral infection efficiency is close to 100% in these neurons. Scale bar: 50 um. […] Bars represent mean±SD of three experimental replicates. […] FIG. 11J depicts DIV3 mouse cortical neurons were treated with ABT (50 uM) for 6 hours and then treated with KCl (50 mM) for 6-hour before harvest for RT-qPCR analysis. Bars represent mean±SD of three experimental replicates. FIG. 11K depicts DIV3 mouse cortical neurons were treated with 2-Hydroxyglutarate (10 mM) for 2 hours and then treated with KCl (50 mM) for 6-hour before harvest for RT-qPCR analysis. Bars represent mean±SD of three experimental replicates. FIG. 11L depicts DIV3 mouse cortical neurons derived from wild-type or Tet1 knockout E17.5 embryos were subject to time course KCl treatment experiments (6, 9 and 12 h). Bars represent mean±SD of three experimental replicates.
DNA replication-independent active demethylation has been proposed to operate in post-mitotic neurons (Guo et al., 2011; Martinowich et al., 2003). To test whether active demethylation can be induced in post-mitotic neurons, we applied the dCas9-Tet1 system to study the regulation of the BDNF gene. BDNF expression can be induced by neuronal activity accompanied by demethylation of its promoter IV (Chen et al., 2003; Martinowich et al., 2003). We designed 4 gRNAs targeting 11 CpGs in BDNF promoter IV (FIG. 11A) to determine whether dCas9-Tet1 can activate BDNF by inducing demethylation of this promoter (FIG. 3A). Mouse cortical neurons were isolated from E17.5 embryos and cultured for two days in vitro (DIV2) following a well-established experimental procedure for producing primary neuronal culture (Ebert et al., 2013). […] Neurons at day 3 in culture (DIV3) were infected with lentiviral vectors expressing dCas9-Tet1 with or without the 4 gRNAs at almost 100% transduction efficiency (FIG. 11E). At 48-hour post infection some of the cultures were treated with KCl to induce neuronal activity. […] We performed bisulfite sequencing to examine the methylation state of BDNF promoter IV. […]

[1] = with 4 gRNAs targeting BDNF promoter IV, DIV3 neurons, lentiviral infection 2 days

Substance	induction of BDNF expression [1]	induction of BDNF expression (in the absence of gRNAs, DIV3 neurons, lentiviral infection 2 days)	induction of BDNF expression (with each individual gRNA targeting BDNF promoter IV)
dC-dT: dCas9 fused to an inactive mutant form of Tet1 (H1672Y, D1674A), SEQ ID NO: 160	no induction	–	–
dCas9-Tet1: catalytically inactive Cas9 (dCas9) fused through NLS to the Tet1 catalytic domain, SEQ ID NO: 159; lentivirally expressed with gRNAs	about 6 fold	less than 2 fold	2-3 fold
